Laboratory results from patent publication US12383624B2, “Cargo delivery system and composition comprising the same” (SEOUL NATIONAL UNIVERSITY R&DB FOUNDATION, priority 2018, dated 2025).

System: Bcl-2
Assay: target protein degradation by immunoblotting (Experimental Example 6)
Format: cell-based, human
Conditions: HEK293T cell line, 24 hours
Experimental: In order to evaluate the target proteion degradation efficacy by Examples 14 to 33 according the disclosure, the following experiment was conducted.
First, as cell lines primarily expressing the target protein, Human kidney-derived cancer cells, HEK293T (ATCC, CRL-3216), human prostate-derived cancer cells, LNcap (Korean Cell Line Bank, Korean Cell Line Research Foundation, KCLB No. 80018), mouse embryonic fibroblast, MEF (ATCC, SCRC-1008), human cervical cancer cells, HeLa (Korean Cell Line Bank, Korean Cell Line Research Foundation, KCLB No. 10002), human blood-derived cells, K562 (Korean Cell Line Bank, Korean Cell Line Research Foundation, KCLB No. 10243), human blood-derived cells, THP-1 (Korean Cell Line Bank, Korean Cell Line Research Foundation, KCLB No. 40202), human lung-derived cancer cells, A549 (Korean Cell Line Bank, Korean Cell Line Research Foundation, KCLB No. 10185), human breast-derived cancer cells, MCF7 (Korean Cell Line Bank, Korean Cell Line Research Foundation, KCLB No. 30022), human neuroblastoma, SH-SY5Y cell lines (Korean Cell Line Bank, Korean Cell Line Research Foundation, KCLB No. 22266), human pancreatic cancer cells, PANC-1 (Korean Cell Line Bank, Korean Cell Line Research Foundation, KCLB No. 21469) were cultured, respectively, in an incubator maintained at 5% carbon dioxide, using DMEM containing 10% FBS and 1% streptomycin/penicillin, RPMI1640, or MEM medium, and then the respective cells were dispensed in 12-well plate. Additional incubation was performed for 24 hours to ensure that each cell completely fixed to the surface of the plate.
In order to confirm whether Compounds A to W of Examples 14 to 33 degrade the target protein respectively, the cultured cells were treated with the compound of each example for 24 hours and then collected.
In this case, HEK293T, which is human kidney-derived cancer cells, LNcap, which is human prostate-derived cancer cells, and MEF cell line, which is mouse embryonic fibroblasts, were treated with Example 14 (Compound A). HEK293T, which is human kidney-derived cancer cells, was treated with Example 15 (Compound B). HEK293T cell line, which is human kidney-derived cancer cells, and HeLa cell line, which is cervical-derived cancer cells, were treated with Example 16 (Compound C). HEK293T cell line, which is human kidney-derived cancer cells, was treated with Example 17 (Compound D). K562 cell line, which is human blood-derived cells, was treated with Example 18 (Compound E). HEK293T cell line, which is human kidney-derived cancer cells, was treated with Example 19 (Compound F). THP-1 cell line, which is human blood-derived cells, was treated with Example 20 (Compound G). A549 cell line, which is human lung-derived cancer cells, was treated with Example 21 (Compound H). A549 cell line, which is human lung-derived cancer cells, was treated with Example 22 (Compound I). MCF7 cell line, which is human breast-derived cancer cells, was treated with Example 23 (Compound J). HEK293T cell line, which is […], was treated with Example 24 (Compound L). SH-SY5Y, which is human neuroblastoma, and HeLa cell line, which is cervical-derived cancer cells, were treated with Example 25 (Compound M). THP-1 cell line, which is human blood-derived cells, was treated with Example 26 (Compound P). SH-SY5Y, which is human neuroblastoma, and HeLa cell line, which is cervical-derived cancer cells, were treated with Example 27 (Compound Q). SH-SY5Y, which is human neuroblastoma, and HeLa cell line, which is cervical-derived cancer cells, were treated with Example 28 (Compound R). HeLa cell line, a human cervical-derived cancer cell, was treated with Example 29 (Compound S). SH-SY5Y cell line, which is human neuroblastoma, was treated with Example 30 (Compound T). SH-SY5Y cell line, which is human neuroblastoma, was treated with Example 31 (Compound U). PANC-1 cell line, which is human pancreatic-derived cancer cells, was treated with Example 32 (Compound V). […]

In the case of `O=C(O)c1ccc2c(c1)nc(Nc1cc(Cl)cc(NCCOCCOCCOCCOCCOCCNC[C@@H](O)COc3ccc(OCc4ccc(F)cc4)c(OCc4ccc(F)cc4)c3)c1)c1ccncc12` [Example 24, (R)-5-((3-((21-(3,4-bis((4-fluorobenzyl)oxy)phenoxy)-20-hydroxy-3,6,9,12,15-pentaoxa-18-azahenicosyl)amino)-5-chlorophenyl)amino)benzo[c][2,6]naphthyridine-8-carboxylic acid], the “degradation of target protein Bcl-2 (decrease in level vs Control)” value is reported as “can be degraded”.
